{"source": "ChEMBL document CHEMBL4346660", "about": "“Cryptolepine and aromathecin based mimics as potent G-quadruplex-binding, DNA-cleavage and anticancer agents: Design, synthesis and DNA targeting-induced apoptosis” (Eur J Med Chem, 2019)", "key": {"[1]": {"tested_on": "MGC-803", "experiment": "Cell cycle arrest in human MGC803 cells assessed as increase in p21 expression at 0.5 to 2.5 uM incubated for 24 hrs by Western blot analysis", "type": "functional, cell-based"}, "[2]": {"tested_on": "MGC-803", "experiment": "Antitumor activity against human MGC803 cells xenografted in BALB/C mouse assessed as tumor growth inhibition at 12 mg/kg, ip administered every other day for 2 weeks measured during compound dosing relative to control", "type": "functional", "details": "MGC-803, ip, 336 h"}, "[3]": {"tested_on": "MGC-803", "experiment": "Induction of apoptosis in human MGC803 cells assessed as decrease in Bcl-xL expression at 0.5 to 2.5 uM after 24 hrs by Western blot analysis", "type": "functional, cell-based"}, "[4]": {"tested_on": "MGC-803", "experiment": "Induction of apoptosis in human MGC803 cells assessed as nuclear condensation at 2.5 uM after 24 hrs by Hoechst 33258 staining-based fluorescence microscopic method", "type": "functional, cell-based"}, "[5]": {"tested_on": "MGC-803", "experiment": "Induction of apoptosis in human MGC803 cells assessed as increase in cytochrome-c expression at 0.5 to 2.5 uM after 24 hrs by Western blot analysis", "type": "functional, cell-based"}, "[6]": {"tested_on": "MGC-803", "experiment": "Induction of apoptosis in human MGC803 cells assessed as decrease in Bcl-2 expression at 0.5 to 2.5 uM after 24 hrs by Western blot analysis", "type": "functional, cell-based"}, "[7]": {"tested_on": "MGC-803", "experiment": "Antiproliferative activity against human MGC803 cells assessed as reduction in cell viability incubated for 48 hrs by MTT assay", "type": "functional, cell-based", "details": "MGC-803, 48 h"}}, "note": "The source made the active and inactive calls. No cut-off for these calls is given here.", "data": [{"compound": "CN(C)CCCNc1c2c(nc3ccc(F)cc13)-c1ccccc1C2", "values": [{"measurement": "Activity", "setting": "[1]", "value": "Active"}, {"measurement": "inhibition in vivo at 12 mg/kg", "setting": "[2]", "value": 53.2, "unit": "%"}, {"measurement": "Activity", "setting": "[3]", "value": "Active"}, {"measurement": "Activity", "setting": "[4]", "value": "Active"}, {"measurement": "Activity", "setting": "[5]", "value": "Active"}, {"measurement": "Activity", "setting": "[6]", "value": "Active"}, {"measurement": "IC50", "setting": "[7]", "value": 970, "unit": "nM"}]}]}
